According to patent publication US4692443A, “3-bicyclicpyridinium-methyl cephalosporins” (Eli Lilly and Company, priority 1984, dated 1987):
In brackets after ≈: the same amount, converted by molar mass. Where two headings read alike, the source gives them in different places.

Experiments:
Type in all cases: cell-based
Staph. aureus X1.1 = experiment: standard in vitro agar dilution assay (MIC); conditions: Staphylococcus aureus; Staph. aureus strain X1.1; read-out: Agar Dilution MIC
Staph. aureus V41 = experiment: standard in vitro agar dilution assay (MIC); conditions: Staphylococcus aureus
Staph. aureus X400 = experiment: standard in vitro agar dilution assay (MIC); conditions: Staphylococcus aureus; Staph. aureus strain X400
Staph. aureus S13E = experiment: microbe, parasite or virus in culture; conditions: Staphylococcus aureus, read-out: Agar Dilution MIC
Staph. epi EPI1 = experiment: standard in vitro agar dilution assay (MIC); conditions: Staph. epi strain EPI1
Staph. epi 222 = experiment: standard in vitro agar dilution assay (MIC); conditions: Staph. epi strain 222
Strep. A C203 = experiment: standard in vitro agar dilution assay (MIC); conditions: Strep. A strain C203
Strep. PN PARK = experiment: standard in vitro agar dilution assay (MIC); conditions: Strep. PN strain PARK
Strep. D X66 = experiment: standard in vitro agar dilution assay (MIC); conditions: Strep. D strain X66
Strep. D 9960 = experiment: standard in vitro agar dilution assay (MIC); conditions: Strep. D strain 9960
E. coli EC14 = experiment: standard in vitro agar dilution assay (MIC); conditions: Escherichia coli; E. coli strain EC14; read-out: Agar Dilution MIC
E. coli TEM = experiment: standard in vitro agar dilution assay (MIC); conditions: Escherichia coli; E. coli strain TEM; read-out: Agar Dilution MIC
Klebsiella X26 = experiment: standard in vitro agar dilution assay (MIC); conditions: Klebsiella strain X26; read-out: Agar Dilution MIC
Klebsiella KAE = experiment: standard in vitro agar dilution assay (MIC); conditions: read-out: Agar Dilution MIC
Klebsiella X68 = experiment: standard in vitro agar dilution assay (MIC); conditions: Klebsiella strain X68; read-out: Agar Dilution MIC
Salmonella X514 = experiment: standard in vitro agar dilution assay (MIC); conditions: Salmonella strain X514; read-out: Agar Dilution MIC
Pseudomonas X528 = experiment: standard in vitro agar dilution assay (MIC); conditions: Pseudomonas strain X528
Excerpt: The antibacterial activity of several representative compounds of the invention has been evaluated in standard in vitro agar dilution assays. The following Table presents typical minimum inhibitory concentrations (MIC's) in μg /ml for exemplary compounds when evaluated against typical Gram + and Gram - microorganism.

Pseudomonas X239 = experiment: standard in vitro agar dilution assay (MIC); conditions: Pseudomonas strain X239
H. influ. C.L. = experiment: standard in vitro agar dilution assay (MIC); conditions: H. influ. strain C.L.; read-out: Agar Dilution MIC
H. influ. 76 = experiment: standard in vitro agar dilution assay (MIC); conditions: H. influ. strain 76; read-out: Agar Dilution MIC
E. coli N10 = experiment: standard in vitro agar dilution assay (MIC); conditions: Escherichia coli
[1] = system: Enterobacter aerogenes C32; experiment: standard in vitro agar dilution assay (MIC); conditions: Klebsiella aerogenes
Serratia X99 = experiment: standard in vitro agar dilution assay (MIC); conditions: Serratia strain X99; read-out: Agar Dilution MIC
[2] = Staph. aureus strain V41, read-out: Agar Dilution MIC
[3] = E. coli strain N10, read-out: Agar Dilution MIC
[4] = Enterobacter aerogenes strain C32, read-out: Agar Dilution MIC

Row | Compound | MIC (Staph. aureus X1.1) [mg/L] | MIC (Staph. aureus V41; [2]) [mg/L] | MIC (Staph. aureus X400) [mg/L] | MIC (Staph. aureus S13E) [mg/L] | MIC (Staph. epi EPI1) [mg/L] | MIC (Staph. epi 222) [mg/L] | MIC (Strep. A C203) [mg/L] | MIC (Strep. PN PARK) [mg/L] | MIC (Strep. D X66) [mg/L] | MIC (Strep. D 9960) [mg/L] | MIC (E. coli EC14) [mg/L] | MIC (E. coli TEM) [mg/L] | MIC (Klebsiella X26) [mg/L] | MIC (Klebsiella KAE; Klebsiella strain KAE) [mg/L] | MIC (Klebsiella X68) [mg/L] | MIC (Salmonella X514) [mg/L] | MIC (Pseudomonas X528) [mg/L] | MIC (Pseudomonas X239) [mg/L] | MIC (H. influ. 76) [mg/L] | MIC (E. coli N10; [3]) [mg/L] | other results
1 | CO/N=C(\C(=O)NC1C(=O)N2C(C(=O)[O-])=C(C[n+]3ccc4ncn(C)c4c3)CSC12)c1csc(N)n1 (stereo not drawn) [Example 3, syn-7-[2-(2-Aminothiazol-4-yl)-2-methoxyiminoacetamido]-3-(3-methyl-3H-imidazolo[4,5-c]pyridinium-5-ylmethyl)-3-cephem-4-carboxylate] | 1 (≈ 1.89 µM) | 4 (≈ 7.57 µM) | 64 (≈ 121 µM) | 4 (≈ 7.57 µM) | 2 (≈ 3.78 µM) | 1 (≈ 1.89 µM) | < 0.008 | < 0.008 | > 128 | 4 (≈ 7.57 µM) | < 0.008 | < 0.008 | < 0.008 | 4 (≈ 7.57 µM) | 0.03 (≈ 0.0568 µM) | < 0.008 | 1 (≈ 1.89 µM) | 2 (≈ 3.78 µM) | – | – | –
2 | CO/N=C(\C(=O)NC1C(=O)N2C(C(=O)[O-])=C(C[n+]3ccc4sc(C)nc4c3)CSC12)c1csc(N)n1 (stereo not shown) [Example 13] | 1 (≈ 1.83 µM) | 8 (≈ 14.7 µM) | 32 (≈ 58.6 µM) | 8 (≈ 14.7 µM) | 2 (≈ 3.67 µM) | 1 (≈ 1.83 µM) | 0.015 (≈ 0.0275 µM) | < 0.008 | > 128 | 8 (≈ 14.7 µM) | 0.015 (≈ 0.0275 µM) | 0.015 (≈ 0.0275 µM) | 0.015 (≈ 0.0275 µM) | 2 (≈ 3.67 µM) | 0.03 (≈ 0.055 µM) | – | 2 (≈ 3.67 µM) | 8 (≈ 14.7 µM) | 0.03 (≈ 0.055 µM) | 0.03 (≈ 0.055 µM) | MIC (H. influ. C.L.): 0.03 mg/L (≈ 0.055 µM); MIC [1, 4]: 0.03 mg/L (≈ 0.055 µM)
3 | CO/N=C(\C(=O)NC1C(=O)N2C(C(=O)[O-])=C(C[n+]3ccc4[nH]cnc4c3)CSC12)c1csc(N)n1 (stereo not drawn) [Example 2, syn-7-[2-(2-Aminotiazol-4-yl)-2-methoxyiminoacetamido]-3-(1H-imidazolo[4,5-c]pyridinium-5-ylmethyl)-3-cephem-4-carboxylate] | 1 (≈ 1.94 µM) | 8 (≈ 15.5 µM) | 64 (≈ 124 µM) | 8 (≈ 15.5 µM) | 4 (≈ 7.77 µM) | 1 (≈ 1.94 µM) | < 0.008 | < 0.008 | – | 2 (≈ 3.89 µM) | < 0.008 | < 0.008 | < 0.008 | 4 (≈ 7.77 µM) | < 0.008 | < 0.008 | 1 (≈ 1.94 µM) | 2 (≈ 3.89 µM) | 0.015 (≈ 0.0292 µM) | 0.015 (≈ 0.0292 µM) | MIC (H. influ. C.L.): 0.015 mg/L (≈ 0.0292 µM); MIC [1, 4]: 0.03 mg/L (≈ 0.0583 µM); MIC (Serratia X99): 0.015 mg/L (≈ 0.0292 µM)
4 | CO/N=C(\C(=O)NC1C(=O)N2C(C(=O)[O-])=C(C[n+]3ccc4scnc4c3)CSC12)c1csc(N)n1 (stereo not drawn) [Example 12, syn-7-[2-(2-aminothiazol-4-yl)-2-methoxyiminoacetamido]-3-(thiazolo[4,5-c]pyridinium-5-ylmethyl)-3-cephem-4-carboxylate] | 1 (≈ 1.88 µM) | 2 (≈ 3.76 µM) | 2 (≈ 3.76 µM) | 8 (≈ 15 µM) | 2 (≈ 3.76 µM) | – | 0.015 (≈ 0.0282 µM) | 0.015 (≈ 0.0282 µM) | 128 (≈ 241 µM) | 4 (≈ 7.52 µM) | 0.015 (≈ 0.0282 µM) | – | 0.015 (≈ 0.0282 µM) | 4 (≈ 7.52 µM) | 0.03 (≈ 0.0564 µM) | 0.03 (≈ 0.0564 µM) | 1 (≈ 1.88 µM) | 2 (≈ 3.76 µM) | – | 0.03 (≈ 0.0564 µM) | MIC [1, 4]: 0.03 mg/L (≈ 0.0564 µM)
5 | CC(C)(O/N=C(\C(=O)N[C@@H]1C(=O)N2C(C(=O)[O-])=C(C[n+]3ccccc3)CS[C@H]12)c1csc(N)n1)C(=O)O [Ceftazidime, ceftazidime, reference compound] | 8 (≈ 14.6 µM) | – | 128 (≈ 234 µM) | 32 (≈ 58.5 µM) | 16 (≈ 29.3 µM) | 16 (≈ 29.3 µM) | – | – | > 128 | 16 (≈ 29.3 µM) | – | – | – | – | – | – | 2 (≈ 3.66 µM) | 2 (≈ 3.66 µM) | – | – | MIC (Staph. aureus V41; V41, read-out: Agar Dilution MIC): 32 mg/L (≈ 58.5 µM); MIC (E. coli N10; N10, read-out: Agar Dilution MIC): 0.25 mg/L (≈ 0.457 µM); MIC (Klebsiella KAE; Klebsiella): 0.5 mg/L (≈ 0.915 µM); MIC ([1]; C32, read-out: Agar Dilution MIC): 0.25 mg/L (≈ 0.457 µM)
6 | CO/N=C(\C(=O)NC1C(=O)N2C(C(=O)[O-])=C(C[n+]3ccc4c(c3)nc(C)n4C)CSC12)c1csc(N)n1 (stereo not drawn) [Example 6, syn-7-[2-(2-aminothiazol-4-yl)-2-methoxyiminoacetamido]-3-(1,2-dimethyl-1H-imidazolo[4,5-c]pyridinium-5-ylmethyl)-3-cephem-4-carboxylate] | 2 (≈ 3.69 µM) | 16 (≈ 29.5 µM) | 32 (≈ 59 µM) | 8 (≈ 14.7 µM) | 2 (≈ 3.69 µM) | 1 (≈ 1.84 µM) | < 0.008 | < 0.008 | > 128 | 4 (≈ 7.37 µM) | < 0.008 | < 0.008 | < 0.008 | 2 (≈ 3.69 µM) | 0.03 (≈ 0.0553 µM) | 0.03 (≈ 0.0553 µM) | 4 (≈ 7.37 µM) | 4 (≈ 7.37 µM) | – | 0.03 (≈ 0.0553 µM) | MIC [1, 4]: 0.03 mg/L (≈ 0.0553 µM)
7 | CO/N=C(\C(=O)NC1C(=O)N2C(C(=O)[O-])=C(C[n+]3ccc4nc(C)n(C)c4c3)CSC12)c1csc(N)n1 (stereo not drawn) [Example 7, syn-7-[2-(2-aminothiazol-4-yl)-2-methoxyiminoacetamido]-3-(2,3-dimethyl-3H-imidazolo[4,5-c]pyridinium-5-ylmethyl)-3-cephem-4-carboxylate] | 2 (≈ 3.69 µM) | – | 128 (≈ 236 µM) | – | 4 (≈ 7.37 µM) | 2 (≈ 3.69 µM) | 0.015 (≈ 0.0276 µM) | – | > 128 | 4 (≈ 7.37 µM) | 0.015 (≈ 0.0276 µM) | 0.015 (≈ 0.0276 µM) | 0.015 (≈ 0.0276 µM) | 2 (≈ 3.69 µM) | 0.03 (≈ 0.0553 µM) | – | – | – | 0.03 (≈ 0.0553 µM) | 0.03 (≈ 0.0553 µM) | –
8 | CCc1nc2c[n+](CC3=C(C(=O)[O-])N4C(=O)C(NC(=O)/C(=N\OC)c5csc(N)n5)C4SC3)ccc2s1 (stereo not drawn) [Example 14, syn-7-[2-(2-aminothiazol-4-yl)-2-methoxyiminoacetamido]-3-(2-ethylthiazolo[4,5-c]pyridinium-5-ylmethyl)-3-cephem-4-carboxylate] | 1 (≈ 1.79 µM) | 4 (≈ 7.15 µM) | 32 (≈ 57.2 µM) | 4 (≈ 7.15 µM) | 2 (≈ 3.57 µM) | 1 (≈ 1.79 µM) | < 0.008 | < 0.008 | > 128 | 4 (≈ 7.15 µM) | 0.015 (≈ 0.0268 µM) | 0.015 (≈ 0.0268 µM) | < 0.008 | 2 (≈ 3.57 µM) | 0.03 (≈ 0.0536 µM) | – | 4 (≈ 7.15 µM) | 4 (≈ 7.15 µM) | 0.015 (≈ 0.0268 µM) | 0.03 (≈ 0.0536 µM) | –
